According to PMC6832960, “The Fragment-Based Development of a Benzofuran Hit as a New Class of Escherichia coli DsbA Inhibitors” (Molecules, 2019):

How the values were obtained:
EcDsbA [1] = molecular target: T1, EcDsbA (Escherichia coli, UniProt P0AEG4); assay: waterLOGSY ligand-detected NMR binding; details: compound 500 µM, unlabelled EcDsbA 10 µM, 298 K
T1 construct: made in house; protein recovered from the periplasm of the expressing cells
Excerpt: (§1) To validate the binding of benzofuran analogues, three ligand-detected NMR methods, saturation-transfer difference (STD), Carr–Purcell–Meiboom–Gill (CPMG), and water–ligand observed via gradient spectroscopy (waterLOGSY), were employed to detect protein-ligand binding between the benzofurans and EcDsbA (Figure 2C). These experiments were designed as a primary screening tool to select analogues to undergo further affinity evaluation and prioritise compounds for crystal soaking. […] In a good agreement with this finding, eight out of nine benzofurans that passed all three ligand-detected experiments have their co-crystal structures successfully solved; in contrast, five compounds that failed two ligand-detected experiments only have one co-structure solved (Table 2).
(§2) For ligand-detected NMR spectroscopy, two samples (compound alone and compound + protein) were prepared for each compound. Unlabelled EcDsbA was prepared at 10 µM in a buffer of 50 mM sodium phosphate, pH 6.8, 25 mM NaCl, 100 µM 4,4-dimethyl 4-silapentane-1-sulfonic acid (DSS), and 10% ^2H2O. Compound was added to the protein sample to achieve final concentration of 500 µM (2% ^2H6-DMSO). ^1H 1D spectrum was acquired for each compound at 500 µM as a reference spectrum. All ligand-detected NMR experiments (STD, CPMG, and waterLOGSY) were acquired at 298 K on a Bruker Avance III 600 MHz NMR spectrometer equipped with a 5 mm TXI CryoProbe (Bruker, Billerica, MA, USA). STD spectra were acquired with 3 s of saturation at 1 ppm (on-resonance) and 33.3 ppm (off-resonance). WaterLOGSY spectra were acquired for compound alone and compound + protein with a 0.52 s acquisition time, 3 s relaxation delay, and 3 s Nuclear Overhauser effect (NOE) mixing time. CPMG spectra for compound alone and compound + protein were acquired with a constant spin echo delay of 1 ms and spin-lock period of 350 ms. The data was analysed using Topspin3.5 (Bruker) and DSS was used to reference the spectra.

EcDsbA [2] = molecular target: T1, EcDsbA; assay: CPMG ligand-detected NMR binding; details: compound 500 µM, unlabelled EcDsbA 10 µM, 298 K, spin-lock 350 ms
Excerpt: as §1, §2

EcDsbA [3] = molecular target: T1, EcDsbA; assay: STD ligand-detected NMR binding; details: compound 500 µM, unlabelled EcDsbA 10 µM, 298 K
Excerpt: as §1, §2

EcDsbA [4] = molecular target: T1, EcDsbA; assay: Compound soaking into EcDsbA crystals and X-ray diffraction; assay type: binding; details: crystals soaked with compound at 10 mM (5% DMSO) for 3–6 h
Excerpt: The synthesised analogues were soaked into crystals of EcDsbA and X-ray diffraction data was collected for each analogue in order to determine their site of binding. […] The carboxy moiety of 15 was oriented towards the left-hand side of the binding groove, where more polar residues are located. The phenyl ring of the aniline moiety occupied the hydrophobic end of the binding pocket with the nitrogen atom of the amine linker positioned in close proximity to Gln35. […] Although anisidine 16 was occupying a larger region of the EcDsbA binding groove, the shift appeared to have interrupted the π-stacking interactions the benzofuran was making with the His32 side chain previously (Figure 1B and Figure S1).
EcDsbA was crystallised as previously described. Briefly, 1 µL of 30 mg/mL EcDsbA was mixed with an equal volume of crystallisation buffer (11–13% PEG8000, 5–7.5% glycerol, 1 mM CuCl2, 100 mM, sodium cacodylate pH 6.1) and equilibrated against 500 µL of reservoir buffer at 20 °C using hanging drop vapour diffusion. For compound soaking, crystals were transferred into 2 µL drops of 24% PEG8000, 22% glycerol, and 100 mM sodium cacodylate (pH 6.1) containing a compound of interest at the final concentration of 10 mM (5% DMSO) and were incubated for 3–6 h. Crystals were mounted on loops and flash-cooled in liquid nitrogen.
Datasets were collected at the Australian synchrotron on MX1 and MX2 beamlines using the Blue-Ice software (Irvine, CA, USA). MX1 beamline was equipped with an ADSC Quantum 210r detector and MX2 with an ADSC Quantum 315r detector. All datasets were indexed and integrated with iMOSFLM [32] or XDS [33]—and scaled using AIMLESS [34, 35] or SCALA [36]. Phasing was performed by molecular replacement with Phaser using the previously solved structure of EcDsbA as a search model (PDB code 1FVK). The final structure was obtained after several rounds of manual model building using Coot and refinement in phenix.refine. Structures, factors and coordinates have been deposited in the Protein Data Bank (PDB; http://www.pdb.org) under the accession codes of 6PMF, 6POQ, 6POH, 6PML, 6PVY, 6POI, and 6PVZ.

[5] = Solubility noted in the HSQC titration; assay type: physicochemical; details: HSQC titration buffer
Excerpt: The ligand efficiency (LE) ranged from 0.15 to 0.24 kcal mol^−1 HAC^−1. […] Biophysical characterisation of 25 is illustrated in Figure 2. […] Alkyl substituents at C-6 flipped the compound orientation within the hydrophobic groove and disrupt the polar interaction between the imidazole side chain of His32 and carboxyl group of the compound present in the 25 co-structure (Figure 1C). […] It was evident in the co-crystal structure of p-anisidine 16 that the p-methoxy group had caused the benzofuran scaffold to shift further along the hydrophobic groove, possibly disrupting the π-stacking interaction with His32 and polar interactions with Gln164 (Figure 1B).

15N-labelled EcDsbA = molecular target: T2, 15N-labelled EcDsbA (Escherichia coli, UniProt P0AEG4); assay: 2D 1H-15N HSQC chemical shift perturbation / titration; assay type: binding
T2 construct: made in house; protein recovered from the periplasm of the expressing cells
T2 sequence (P0AEG4 20-208): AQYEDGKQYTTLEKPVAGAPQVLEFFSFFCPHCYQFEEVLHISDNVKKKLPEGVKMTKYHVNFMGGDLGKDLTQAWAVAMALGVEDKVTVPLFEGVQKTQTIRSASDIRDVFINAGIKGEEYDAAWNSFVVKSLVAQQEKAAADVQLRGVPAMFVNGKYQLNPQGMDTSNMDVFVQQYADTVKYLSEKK
Method: Compounds that passed at least one ligand-detected NMR experiment were further validated by 2D ^1H-^15N heteronuclear single quantum coherence (HSQC) spectroscopy. In HSQC experiments, chemical shift perturbations (CSP) of backbone amide resonances of ^15N-labelled EcDsbA were measured upon addition of compound at 1 mM. […] In accordance with the crystal structure, the majority of the residues perturbed by 1 mM of benzofuran analogues in single-point HSQCs are located around the hydrophobic groove which is an important binding site for DsbA substrates (Figure 2A). […] Eight compounds produced large enough CSP (>0.04 ppm) to enable HSQC titration and KD determination.
For the 2D ^1H-^15N-HSQC titration experiment, 100 µM of ^15N-labelled EcDsbA in a buffer of 50 mM HEPES, pH 6.8, 50 mM NaCl, 2% ^2H6-DMSO, and 10% ^2H2O, was titrated with increasing concentrations of compounds ([…], 0.125, 0.25, 0.5, and 1 mM). Data were acquired on a Bruker 600 MHz spectrometer equipped with a 5 mm TXI CryoProbe and a Bruker 700 MHz spectrometer equipped with a 5 mm TXI CryoProbe. Data was processed by Topspin3.5 (Bruker) and analysed by Sparky (T. D. Goddard and D. G. Kneller, SPARKY 3, University of California, San Francisco (UCSF)). Weighted chemical shift perturbations (CSP) that were observed upon addition of compounds to EcDsbA were calculated using an Equation (1) in [41]: (1) CSP=ΔδH^2+(0.2×ΔδN)^2 where ΔδH and ΔδN denote the change in chemical shift of amide proton and nitrogen resonances upon addition of the compound. Equilibrium dissociation constants (KD) were determined by fitting the plot of CSP against compound concentrations using one site with ligand depletion model (Equation (2)): (2) CSP=CSPmax×[(KD+Pt+Lt)−((KD+Pt+Lt)^2−4×Pt×Lt)]/2×Pt where CSP is the measured CSP at a given concentration, CSPmax is the CSP observed at the saturating concentration of compound, and Pt and Lt are the total protein and compound concentrations. The ligand efficiency (LE) is calculated using the Equation (3) in [42]: (3) LE=−ΔG/HAC=−RTln(KD)/HAC where R is gas constant (1.9858775 cal K^−1 mol^−1), T is temperature (298 K), KD is equilibrium dissociation constant, and HAC is the number of heavy (non-hydrogen) atoms.

T1 sequence (P0AEG4 20-208): as above

| Structure (SMILES) | wLOGSY (EcDsbA [1]) | CPMG (EcDsbA [2]) | STD (EcDsbA [3]) | Crystal Structure in EcDsbA (EcDsbA [4]) | solubility [5] | melting point [°C] | Kd (15N-labelled EcDsbA) [µM] | Ligand Efficiency (15N-labelled EcDsbA; LE = −RTln(KD)/HAC, 298 K) [kcal mol^−1 HAC^−1] |
| --- | --- | --- | --- | --- | --- | --- | --- | --- |
| O=C(O)Cc1coc2cc(Nc3ccccc3)ccc12 [compound 15, 2-(6-(Phenylamino)benzofuran-3-yl)acetic acid] | Pass | Pass | Pass | Yes | poor solubility | 127 to 130 |  |  |
| O=C(O)Cc1coc2cc(OCc3ccccc3)ccc12 [compound 23] | Pass | Pass | Pass | Yes |  | 153 to 155 | 820 ± 140 | 0.20 |
